Source: US11040028B2, “Penicinotam derivative, preparation method and use thereof” (OCEAN UNIVERSITY OF CHINA, priority 2017, dated 2021)

Assays:
Assay type in all cases: cell-based
NF-κB = test: Immunological activity test: inhibition of NF-κB activity; details: initial concentration of 30 μM; a/b isomers given as first/second symbol; read-out: IC50 (μM), inhibitory activity against NF-κB
Procedure, shortened: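 IC50 values come from further analysis of the data after an initial test at a single 30 μM concentration. Parthenolide served as the reference inhibitor.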

[1] = test system: human lung fibroblasts HFL1; test: Anti-fibrosis activity test: inhibition of proliferation of human lung fibroblasts HFL1 (CCK-8); details: Homo sapiens, HFL1, 48 h
Procedure, shortened: (§1)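 Exponentially growing cells, 2×10^4 cells/mL, attached 24 h. Dosed 48 h across concentrations (n=3). CCK-8 2 h → A450; IR vs blank; IC50.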

[2] = test system: human embryonic lung fibroblast IMR-90; test: Anti-fibrosis activity test: inhibition of proliferation of human embryonic lung fibroblast IMR-90 (CCK-8)
Procedure, shortened: as §1

[3] = test system: cardiac fibroblast RAT-iCell-C002; test: Anti-fibrosis activity test: inhibition of proliferation of cardiac fibroblast RAT-iCell-C002 (CCK-8); details: Cardiac fibroblast, 48 h
Procedure, shortened: as §1

[4] = test system: mouse macrophages (RAW264.7); test: Lipopolysaccharide-induced NO secretion in macrophages (Griess); details: Mus musculus, RAW264.7, 24 h, RAW264.7, LPS 1 μg/ml, a/b isomers given as first/second symbol, read-out: IC50 (μM), inhibition of lipopolysaccharide-induced NO secretion in macrophages
Procedure, shortened: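 RAW264.7 cells in DMEM with 10% FBS were treated with test compounds at several concentrations, then stimulated with LPS (1 μg/ml) for 24 hours. Nitrite in the supernatant was measured by Griess reaction at 548 nm, and percent inhibition was calculated against blank-medium controls.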

[5] = test system: human fibrosarcoma cells HT-1080; test: Anti-fibrosis activity test: inhibition of proliferation of human fibrosarcoma cells HT-1080 (CCK-8); details: Homo sapiens, HT-1080, 48 h
Procedure, shortened: as §1

BHK-21 cells = test: Anti-fibrosis activity test: inhibition of BHK-21 cell proliferation (CCK-8); details: Mesocricetus auratus, BHK-21, 48 h
Procedure, shortened: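 Proliferation of BHK-21 cells is measured by CCK-8 at 450 nm following 48 h compound exposure at several concentrations. Inhibition is expressed relative to blank control and IC50 is computed from it.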

[6] = test system: human dermal fibroblasts CCC-ESF-1; test: Anti-fibrosis activity test: inhibition of proliferation of human dermal fibroblasts CCC-ESF-1 (CCK-8); details: Fibroblast
Procedure, shortened: as §1

[7] = test system: human hepatic stellate cells LX-2; test: Anti-fibrosis activity test: inhibition of proliferation of human hepatic stellate cells LX-2 (CCK-8); details: Homo sapiens, 48 h
Procedure, shortened: as §1

[8] = human lung fibroblasts HFL1, CCK-8, 48 hours
[9] = human embryonic lung fibroblast IMR-90, CCK-8, 48 hours
[10] = cardiac fibroblast RAT-iCell-C002, CCK-8, 48 hours
[11] = human fibrosarcoma cells HT-1080, CCK-8, 48 hours
[12] = CCK-8, 48 hours after administration
[13] = human dermal fibroblasts CCC-ESF-1, CCK-8, 48 hours
[14] = human hepatic stellate cells LX-2, CCK-8, 48 hours
[15] = Homo sapiens, IMR-90 cells, 48 h, CCK-8
[16] = Homo sapiens, CCC-ESF-1 cells, 48 h, CCK-8

Row | SMILES | IC50 (NF-κB) [µM] | IC50 [4] [µM] | IC50 [5, 11] [mM] | IC50 ([5]; HT-1080 cells, 48 h, CCK-8) [mM] | IC50 [1, 8] [mM] | IC50 [2, 9] [mM] | IC50 [3, 10] [mM] | IC50 (BHK-21 cells; [12]) [mM] | IC50 [6, 13] [mM] | IC50 [7, 14] [mM] | IC50 ([1]; HFL1 cells, 48 h, CCK-8) [mM] | IC50 [2, 15] [mM] | IC50 ([3]; RAT-iCell-C002 cells, CCK-8) [mM] | IC50 (BHK-21 cells; 48 h, CCK-8) [mM] | IC50 [6, 16] [mM] | IC50 ([7]; LX-2, 48 h, LX-2 cells, CCK-8) [mM]
1 | O=C1c2c(nc3ccccc3c2OCc2ccc(C(F)(F)F)cc2)-c2cccn21 [Compound 591b, 9-((4-(trifluoromethyl)benzyl)oxy)-10H-pyrrolizino[1,2-b]quinolin-10-one] | 0.1 to 1 | 1 to 10 | 0.05 to 5 | – | 0.05 to 5 | 0.05 to 5 | 0.05 to 5 | 0.05 to 5 | 0.05 to 5 | 0.05 to 5 | – | – | – | – | – | –
2 | O=C1c2c(nc3ccccc3c2OCc2ccc(Cl)cc2)-c2cccn21 [Compound 589b, 9-((4-chlorobenzyl)oxy)-10H-pyrrolizino[1,2-b]quinolin-10-one] | 1 to 10 | 1 to 10 | < 0.05 | – | 0.05 to 5 | 0.05 to 5 | 0.05 to 5 | 0.05 to 5 | 0.05 to 5 | < 0.05 | – | – | – | – | – | –
3 | Cc1ccc(COc2c3c(nc4ccccc24)-c2cccn2C3=O)cc1 [Compound 604b, 9-((4-methylbenzyl)oxy)-10H-pyrrolizino[1,2-b]quinolin-10-one] | 1 to 10 | 1 to 10 | 0.05 to 5 | – | 0.05 to 5 | 0.05 to 5 | 0.05 to 5 | 0.05 to 5 | 0.05 to 5 | 0.05 to 5 | – | – | – | – | – | –
4 | O=C1c2c([nH]c3cccc(C(F)(F)F)c3c2=O)-c2cccn21 [Compound 479a, 8-(Trifluoromethyl)-9H-pyrrolizino[1,2-b]quinoline-9,10(4H)-dione] | 10 to 50 | 10 to 50 | 0.05 to 5 | – | 0.05 to 5 | 0.05 to 5 | 0.05 to 5 | < 0.05 | 0.05 to 5 | 0.05 to 5 | – | – | – | – | – | –
5 | COc1cc(COc2c3c(nc4ccccc24)-c2cccn2C3=O)cc(OC)c1 [Compound 580b, 9-((3,5-dimethoxybenzyl)oxy)-10H-pyrrolizino[1,2-b]quinolin-10-one] | 1 to 10 | 1 to 10 | 0.05 to 5 | – | 0.05 to 5 | 0.05 to 5 | 0.05 to 5 | 0.05 to 5 | 0.05 to 5 | 0.05 to 5 | – | – | – | – | – | –
6 | O=C1c2c(nc3ccccc3c2OCc2ccc(F)c(F)c2)-c2cccn21 [Compound 601b, 9-((3,4-difluorobenzyl)oxy)-10H-pyrrolizino[1,2-b]quinolin-10-one] | 1 to 10 | 1 to 10 | 0.05 to 5 | – | 0.05 to 5 | 0.05 to 5 | 0.05 to 5 | 0.05 to 5 | 0.05 to 5 | 0.05 to 5 | – | – | – | – | – | –
7 | O=C1c2c(nc3ccccc3c2OCc2cc(F)c(F)cc2F)-c2cccn21 [Compound 585b, 9-((2,4,5-trifluorobenzyl)oxy)-10H-pyrrolizino[1,2-b]quinolin-10-one] | 1 to 10 | 1 to 10 | 0.05 to 5 | – | 0.05 to 5 | 0.05 to 5 | 0.05 to 5 | 0.05 to 5 | 0.05 to 5 | 0.05 to 5 | – | – | – | – | – | –
8 | Cn1c2c(c(=O)c3cc(F)ccc31)C(=O)n1cccc1-2 [Compound 157a, 7-Fluoro-4-methyl-9H-pyrrolizino[1,2-b]quinoline-9,10(4H)-dione] | 10 to 50 | 0.1 to 1 | 0.05 to 5 | – | 0.05 to 5 | 0.05 to 5 | 0.05 to 5 | 5 to 20 | 0.05 to 5 | 0.05 to 5 | – | – | – | – | – | –
9 | O=C1c2c(nc3cc(N4CCNCC4)ccc3c2O)-c2cccn21 [Compound 319b, 9-Hydroxy-6-(piperazin-1-yl)-10H-pyrrolizino[1,2-b]quinolin-10-one] | 1 to 10 | 1 to 10 | 0.05 to 5 | – | 0.05 to 5 | 0.05 to 5 | 0.05 to 5 | 0.05 to 5 | < 0.05 | 0.05 to 5 | – | – | – | – | – | –
10 | O=C1c2c(nc3cc(F)ccc3c2OCc2ccc(Cl)cc2)-c2cccn21 [Compound 496b, 9-((4-chlorobenzyl)oxy)-6-fluoro-10H-pyrrolizino[1,2-b]quinolin-10-one] | 10 to 50 | 1 to 10 | 0.05 to 5 | – | 0.05 to 5 | 0.05 to 5 | 0.05 to 5 | 0.05 to 5 | 0.05 to 5 | 0.05 to 5 | – | – | – | – | – | –
11 | O=C1c2c(n(Cc3ccc([N+](=O)[O-])cc3)c3ccccc3c2=O)-c2cccn21 [Compound 593a, 4-(4-Nitrobenzyl)-9H-pyrrolizino[1,2-b]quinoline-9,10(4H)-dione] | 0.1 to 1 | 1 to 10 | 0.05 to 5 | – | 0.05 to 5 | 0.05 to 5 | 0.05 to 5 | 0.05 to 5 | 0.05 to 5 | 0.05 to 5 | – | – | – | – | – | –

The next lines start with results.

Row | IC50 (NF-κB) [µM] | IC50 [4] [µM] | IC50 [5, 11] [mM] | IC50 ([5]; HT-1080 cells, 48 h, CCK-8) [mM] | SMILES | IC50 [1, 8] [mM] | IC50 [2, 9] [mM] | IC50 [3, 10] [mM] | IC50 (BHK-21 cells; [12]) [mM] | IC50 [6, 13] [mM] | IC50 [7, 14] [mM] | IC50 ([1]; HFL1 cells, 48 h, CCK-8) [mM] | IC50 [2, 15] [mM] | IC50 ([3]; RAT-iCell-C002 cells, CCK-8) [mM] | IC50 (BHK-21 cells; 48 h, CCK-8) [mM] | IC50 [6, 16] [mM] | IC50 ([7]; LX-2, 48 h, LX-2 cells, CCK-8) [mM]
12 | 1 to 10 | 1 to 10 | 0.05 to 5 | – | O=C1c2c(n(Cc3cccc(I)c3)c3ccccc3c2=O)-c2cccn21 [Compound 608a, 4-(3-Iodobenzyl)-9H-pyrrolizino[1,2-b]quinoline-9,10(4H)-dione] | 0.05 to 5 | < 0.05 | 0.05 to 5 | < 0.05 | 0.05 to 5 | 0.05 to 5 | – | – | – | – | – | –
13 | 1 to 10 | 1 to 10 | 0.05 to 5 | – | CS(=O)(=O)n1c2c(c(=O)c3ccccc31)C(=O)n1cccc1-2 [Compound 650a, 4-(Methylsulfonyl)-9H-pyrrolizino[1,2-b]quinoline-9,10(4H)-dione] | 0.05 to 5 | 0.05 to 5 | 0.05 to 5 | < 0.05 | 0.05 to 5 | 0.05 to 5 | – | – | – | – | – | –
14 | 1 to 10 | 1 to 10 | 0.05 to 5 | – | COCCn1c2c(c(=O)c3ccccc31)C(=O)n1cccc1-2 [Compound 652a, 4-(2-Methoxyethyl)-9H-pyrrolizino[1,2-b]quinoline-9,10(4H)-dione] | 0.05 to 5 | 0.05 to 5 | 0.05 to 5 | 0.05 to 5 | 0.05 to 5 | 0.05 to 5 | – | – | – | – | – | –
15 | 10 to 50 | 1 to 10 | 0.05 to 5 | – | O=C1c2c(nc3ccccc3c2OCC(F)(F)F)-c2cccn21 [Compound 657b, 9-(2,2,2-trifluoroethoxy)-10H-pyrrolizino[1,2-b]quinolin-10-one] | 0.05 to 5 | 0.05 to 5 | 0.05 to 5 | 0.05 to 5 | 0.05 to 5 | 0.05 to 5 | – | – | – | – | – | –
16 | 1 to 10 | 1 to 10 | – | 0.05 to 5 | O=C1c2c(nc3ccccc3c2OC2CC2)-c2cccn21 [Compound 673b, 9-cyclopropoxy-10H-pyrrolizino[1,2-b]quinolin-10-one] | – | – | – | – | – | – | 0.05 to 5 | 0.05 to 5 | 0.05 to 5 | 0.05 to 5 | 0.05 to 5 | 0.05 to 5
17 | 1 to 10 | 1 to 10 | 0.05 to 5 | – | CC(C)(O)COc1c2c(nc3ccccc13)-c1cccn1C2=O [Compound 660b, 9-(2-hydroxy-2-methylpropoxy)-10H-pyrrolizino[1,2-b]quinolin-10-one] | 0.05 to 5 | 0.05 to 5 | 0.05 to 5 | 0.05 to 5 | 0.05 to 5 | 0.05 to 5 | – | – | – | – | – | –
18 | 1 to 10 | 1 to 10 | – | 0.05 to 5 | Cc1cc2n(c1)C(=O)c1[nH]c3ccccc3c(=O)c1-2 [Compound 798a, 2-Methyl-5H-pyrrolizino[2,1-b]quinoline-5,11(6H)-dione] | – | – | – | – | – | – | 0.05 to 5 | 0.05 to 5 | 0.05 to 5 | < 0.05 | 0.05 to 5 | 0.05 to 5
19 | 1 to 10 | 1 to 10 | 0.05 to 5 | – | O=C1c2c(nc3ccccc3c2OCCF)-c2cccn21 [Compound 653b, 9-(2-fluoroethoxy)-10H-pyrrolizino[1,2-b]quinolin-10-one] | 0.05 to 5 | 0.05 to 5 | 0.05 to 5 | 0.05 to 5 | 0.05 to 5 | 0.05 to 5 | – | – | – | – | – | –
